Assay results as given in patent US20250034531A1, “METHOD FOR PRODUCING STEM CELLS” (priority 2021, published 2025).

Experiments:
[1] = tested on: Human peripheral blood mononuclear cells; settings: 10 nmol/L in RPMI 1640 medium with IL-2 added daily; KLF4, OCT3/4, SOX2, c-MYC by CytoTune-iPS 2.0; 14th day; FIG. 2
Description: Human peripheral blood mononuclear cells were put into the culture medium, and a culture medium containing about 1×10^6 monocytes was put into a 24-well plate (1st day). 1 μL of 20 μg/mL IL-2 was added to the culture medium every day. On the third day, the culture medium containing the cells was recovered from the plates, the culture medium was centrifugally separated, and the supernatant was removed. Then, 2 mL of a new HMBPP-containing medium was added to the cells, and 1 mL was put into each of two wells of a 24-well plate.
On the 6th day, the culture medium containing the cells was recovered from the plates, the culture medium was centrifugally separated, and the supernatant was removed. Then, an HMBPP-containing medium was added to the cells, and a culture medium containing 2×10^4 monocytes was put into a 96-well plate. KLF4, OCT3/4, SOX2, and c-MYC were introduced into the cells by using CytoTune-iPS 2.0 (Thermo Fisher Scientific, Inc.). The multiplicity of infection (MOI) was adjusted to be 20 to 30.
On the 7th day, the culture medium containing the cells recovered from the 96-well plate were added with a fresh HMBPP-containing medium and put into a 6-well plate. On the 8th, 10th, and 12th days, a stem cell culture medium (Stem Fit, Ajinomoto Co., Inc.) was added thereto, and thereafter, the culture medium was replaced using the stem cell culture medium.

Vγ9 gene = settings: genomic DNA of the iPS cells; γδT cells as positive control; FIG. 4
Description: iPS cells were induced in the same manner as in Example 1, except that HMBPP in the HMBPP-containing medium was changed to 5 μL of zoledronic acid (Zol, Sigma-Aldrich Co., LLC).

C/C(=C\COP(=O)(O)OP(=O)(O)O)CO [HMBPP, (E)-4-hydroxy-3-methyl-but-2-enyl pyrophosphate]
colonies of iPS cells formed [1]: a plurality of colonies of iPS cells has been formed
rearranged Vγ9 gene having the J1/J2 gene in the established iPS cells (Vγ9 gene): have a Vγ9 gene that has undergone rearrangement
